Assay results as given in US10898481B2 (priority 2018, dated 2021).
Read-outs that look alike come from different tables or passages of the source.

Key:
hA2b/CHO = hA2b/CHO (Homo sapiens (Human), UniProt P29275); assay: cAMP inhibition assay in hA2b/CHO cells, 10 μM adenosine; type: cell-based;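 note: cells exposed to compound 30 min at 37 °C, then stimulated with adenosine a further 30 min, cAMP read after 60 min at room temperature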
Method: (§1) hA2a/CHO, hA2b/CHO, hA3/CHO and mA2a/CHO (Genscript) were plated at 5×10^3 cells/well into 384-well polystyrene plates at the day of experiment. Compounds were pre-incubated with cells for 30 min at 37° C., 5% CO2. Then 10 μM adenosine was added to the cells and incubated for 30 min at 37° C., 5% CO2. Detection reagent (CISBIO) was added and the plates were incubated for 60 min at room temperature. The signal was captured by Envision.

hA2a/CHO = hA2a/CHO (Homo sapiens (Human), UniProt P29274); assay: cAMP inhibition assay in hA2a/CHO cells, 10 μM adenosine; type: cell-based;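 note: compounds added to cells 30 min ahead of adenosine, then a further 30 min at 37 °C with adenosine before cAMP detection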
Method: as §1

mA2a/CHO = mA2a/CHO (Mus musculus (Mouse), UniProt Q60613); assay: cAMP inhibition assay in mA2a/CHO cells, 10 μM adenosine; type: cell-based;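 note: compounds preincubated 30 min at 37 °C before the adenosine challenge, then 30 min further stimulation, readout after 60 min detection reagent incubation at room temperature in 384-well plates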
Method: as §1

[1] = target: hADORA1/CHO (hA1 expressing) cells (Homo sapiens (Human), UniProt P30542); assay: cell-based; settings: 10 μM adenosine
[2] = read-out: cAMP & FLIPR IC50 (nM) hA2b
[3] = read-out: cAMP & FLIPR IC50 (nM) hA2a
[4] = read-out: cAMP & FLIPR IC50 (nM) mA2a
[5] = FLIPR inhibition, read-out: cAMP & FLIPR IC50 (nM) hA1

Sequence of hA2b/CHO (P29275 whole entry): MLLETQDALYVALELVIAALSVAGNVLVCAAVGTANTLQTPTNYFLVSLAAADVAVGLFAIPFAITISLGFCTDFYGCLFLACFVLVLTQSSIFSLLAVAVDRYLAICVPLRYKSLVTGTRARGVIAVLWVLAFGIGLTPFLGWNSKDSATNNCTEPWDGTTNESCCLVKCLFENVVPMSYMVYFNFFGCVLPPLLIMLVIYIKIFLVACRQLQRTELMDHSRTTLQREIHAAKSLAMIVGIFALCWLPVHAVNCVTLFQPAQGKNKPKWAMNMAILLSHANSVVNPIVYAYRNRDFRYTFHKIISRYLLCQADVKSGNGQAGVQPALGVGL
Sequence of hADORA1/CHO (hA1 expressing) cells (P30542 whole entry): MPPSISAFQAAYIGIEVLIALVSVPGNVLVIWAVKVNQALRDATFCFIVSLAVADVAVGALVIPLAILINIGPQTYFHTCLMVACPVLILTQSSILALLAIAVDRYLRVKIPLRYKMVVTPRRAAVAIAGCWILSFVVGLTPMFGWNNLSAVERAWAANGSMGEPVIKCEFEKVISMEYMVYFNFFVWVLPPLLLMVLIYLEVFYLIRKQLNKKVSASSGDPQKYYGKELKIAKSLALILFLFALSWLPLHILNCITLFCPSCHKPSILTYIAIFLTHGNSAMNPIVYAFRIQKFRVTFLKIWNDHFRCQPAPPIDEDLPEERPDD
Sequence of mA2a/CHO (Q60613 whole entry): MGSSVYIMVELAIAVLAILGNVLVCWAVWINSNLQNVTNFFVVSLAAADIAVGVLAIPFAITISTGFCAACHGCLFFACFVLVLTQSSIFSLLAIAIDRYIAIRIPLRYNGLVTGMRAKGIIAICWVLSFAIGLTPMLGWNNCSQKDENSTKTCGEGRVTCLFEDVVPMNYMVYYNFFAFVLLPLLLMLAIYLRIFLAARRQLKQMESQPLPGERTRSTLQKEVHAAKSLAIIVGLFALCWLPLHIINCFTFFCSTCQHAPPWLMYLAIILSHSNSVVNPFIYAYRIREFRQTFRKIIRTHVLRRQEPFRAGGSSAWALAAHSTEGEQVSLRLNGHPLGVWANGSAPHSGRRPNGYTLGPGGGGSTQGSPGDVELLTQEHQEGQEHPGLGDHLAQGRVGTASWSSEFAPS
Sequence of hA2a/CHO (P29274 whole entry): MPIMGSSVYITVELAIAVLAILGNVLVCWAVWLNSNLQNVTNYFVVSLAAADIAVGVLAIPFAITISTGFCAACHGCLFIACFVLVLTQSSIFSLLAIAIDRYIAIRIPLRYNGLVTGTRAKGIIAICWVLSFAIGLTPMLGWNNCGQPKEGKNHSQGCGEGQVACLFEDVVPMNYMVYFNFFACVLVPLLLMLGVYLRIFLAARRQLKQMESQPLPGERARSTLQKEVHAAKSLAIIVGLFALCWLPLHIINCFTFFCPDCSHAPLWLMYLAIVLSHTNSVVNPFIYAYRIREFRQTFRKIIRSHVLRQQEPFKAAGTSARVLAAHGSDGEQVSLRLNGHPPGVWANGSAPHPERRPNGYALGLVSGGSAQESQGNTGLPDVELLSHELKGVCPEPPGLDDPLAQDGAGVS

SMILES | IC50 (hA2b/CHO; [2]) | IC50 (hA2a/CHO; [3]) | IC50 (mA2a/CHO; [4]) | IC50 [1, 5] | IC50 (hA2b/CHO; cAMP & FLIPR IC50 (nM) hA2b) | IC50 (hA2a/CHO; cAMP & FLIPR IC50 (nM) hA2a) | IC50 (mA2a/CHO; cAMP & FLIPR IC50 (nM) mA2a) | IC50 ([1]; cAMP & FLIPR IC50 (nM) hA1, FLIPR inhibition)
CCc1ccccc1CNC(=O)c1nc(-c2cc(C)nc(C)c2)c(-c2ccc(F)cc2)nc1N [Example 84, 3-amino-6-(2,6-dimethylpyridin-4-yl)-N-(2-ethylbenzyl)-5-(4-fluorophenyl) pyrazine-2-carboxamide] | ≥ 10000 nM | 18 nM | 238 nM | 1200 nM |  |  |  | 
Cc1cc(-c2nc(C(=O)NCc3c(F)cccc3OC(F)F)c(N)nc2-c2ccc(F)cc2)cc(C)n1 [Example 85, 3-amino-N-(2-(difluoromethoxy)-6-fluorobenzyl)-6-(2,6-dimethylpyridin-4-yl)-5-(4-fluorophenyl)pyrazine-2-carboxamide] | 418 nM | 2.5 nM | 36 nM | 299 nM |  |  |  | 
COc1ccccc1C(=O)NCc1nc(-c2cc(C)nc(C)c2)c(-c2ccc(F)cc2)nc1N [Example 86, N-((3-amino-6-(2,6-dimethylpyridin-4-yl)-5-(4-fluorophenyl)pyrazin-2-yl)methyl)-2-methoxybenzamide] | 7830 nM | 5 nM | 192 nM | 539 nM |  |  |  | 
Nc1nc(-c2ccc(F)cc2)c(-c2ccc(=O)n(C3CC3)c2)nc1C(=O)NCc1c(F)cccc1F [Example 87, 3-amino-6-(1-cyclopropyl-6-oxo-1,6-dihydropyridin-3-yl)-N-(2,6-difluorobenzyl)-5-(4-fluorophenyl)pyrazine-2-carboxamide] | 153 nM | 10 nM | 22 nM | 31 nM |  |  |  | 
Cc1scnc1CNC(=O)c1nc(-c2ccc3nccn3c2)c(-c2ncco2)nc1N [Example 94, 3-amino-6-[imidazo[1,2-a]pyridin-6-yl]-N-[(5-methyl-1,3-thiazol-4-yl)methyl]-5-(1,3-oxazol-2-yl)pyrazine-2-carboxamide] | 76 nM | 3.9 nM | 34 nM | 2960 nM |  |  |  | 
Nc1ccnc(CNC(=O)c2nc(-c3ccc4nccn4c3)c(-c3ncco3)nc2N)n1 [Example 95, 3-amino-N-[(4-aminopyrimidin-2-yl)methyl]-6-[imidazo[1,2-a]pyridin-6-yl]-5-(1,3-oxazol-2-yl)pyrazine-2-carboxamide] | 78 nM | 69 nM | 667 nM | 10000 nM |  |  |  | 
CP(C)(=O)c1cccc(F)c1CNC(=O)c1nc(-c2ccc3nccn3c2)c(-c2ncco2)nc1N [Example 96, 3-amino-N-[[2-(dimethylphosphoryl)-6-fluorophenyl]methyl]-6-[imidazo[1,2-a]pyridin-6-yl]-5-(1,3-oxazol-2-yl)pyrazine-2-carboxamide] | 164 nM | 2.5 nM | 7.5 nM | 136 nM |  |  |  | 
Cn1cc(-c2nc(C(=O)NCc3c(F)cccc3P(C)(C)=O)c(N)nc2-c2ncco2)ccc1=O [Example 97, 3-amino-N-(2-(dimethylphosphoryl)-6-fluorobenzyl)-6-(1-methyl-6-oxo-1,6-dihydropyridin-3-yl)-5-(oxazol-2-yl) pyrazine-2-carboxamide] | 4880 nM | 50 nM | 40 nM | 482 nM |  |  |  | 
CNc1cccc(CNC(=O)c2nc(-c3ccc4nccn4c3)c(-c3ncco3)nc2N)n1 [Example 99, 3-amino-6-(imidazo[1,2-a]pyridin-6-yl)-N-((6-(methylamino)pyridin-2-yl)methyl)-5-(oxazol-2-yl)pyrazine-2-carboxamide] | 200 nM | 5.1 nM | 35 nM | 171 nM |  |  |  | 
Nc1nc(-c2ncco2)c(-c2ccc(=O)n(CCCO)c2)nc1C(=O)NCc1c(F)cccc1F [Example 102, 3-amino-N-[(2,6-difluorophenyl)methyl]-6-[1-(3-hydroxypropyl)-6-oxo-1,6-dihydropyridin-3-yl]-5-(1,3-oxazol-2-yl)pyrazine-2-carboxamide] | 120 nM | 9.9 nM | 48 nM | 78 nM |  |  |  | 
COCCn1cc(-c2nc(C(=O)NCc3c(F)cccc3F)c(N)nc2-c2ncco2)ccc1=O [Example 103, 3-amino-N-[(2,6-difluorophenyl)methyl]-6-[1-(2-methoxyethyl)-6-oxo-1,6-dihydropyridin-3-yl]-5-(1,3-oxazol-2-yl)pyrazine-2-carboxamide] | 2130 nM | 38 nM | 16 nM | 272 nM |  |  |  | 
Nc1nc(-c2ncco2)c(-c2ccc(=O)[nH]c2)nc1C(=O)NCc1c(F)cccc1F [Example 105, 3-amino-N-(2,6-difluorobenzyl)-5-(oxazol-2-yl)-6-(6-oxo-1,6-dihydropyridin-3-yl)pyrazine-2-carboxamide] | 1.8 nM | 0.1 nM | 0.8 nM | 3.5 nM |  |  |  | 
Cn1cc(-c2nc(C(=O)NCc3ccccc3F)c(N)nc2-c2ncco2)ccc1=O [Example 109, 3-amino-N-(2-fluorobenzyl)-6-(1-methyl-6-oxo-1,6-dihydropyridin-3-yl)-5-(oxazol-2-yl)pyrazine-2-carboxamide] | 240 nM | 13 nM | 20 nM | 486 nM |  |  |  | 
Cn1cc(-c2nc(C(=O)NCc3c(F)cccc3Cl)c(N)nc2-c2ncco2)ccc1=O [Example 110, 3-amino-N-(2-chloro-6-fluorobenzyl)-6-(1-methyl-6-oxo-1,6-dihydropyridin-3-yl)-5-(oxazol-2-yl)pyrazine-2-carboxamide] | 11 nM | 0.7 nM | 1 nM | 31 nM |  |  |  | 
Cc1cnc2ccc(-c3nc(C(=O)NCc4cccc(N5CC(N(C)C)C5)n4)c(N)nc3-c3ncco3)cn12 [Example 111, 3-amino-N-((6-(3-(dimethylamino)azetidin-1-yl)pyridin-2-yl)methyl)-6-(3-methylimidazo[1,2-a]pyridin-6-yl)-5-(oxazol-2-yl)pyrazine-2-carboxamide] | 81 nM | 0.5 nM | 6.5 nM | 2810 nM |  |  |  | 
Cc1cnc2ccc(-c3nc(C(=O)NCc4cccc(N5CCN(C)CC5)n4)c(N)nc3-c3ncco3)cn12 [Example 112, 3-amino-6-(3-methylimidazo[1,2-a]pyridin-6-yl)-N-((6-(4-methylpiperazin-1-yl)pyridin-2-yl)methyl)-5-(oxazol-2-yl)pyrazine-2-carboxamide] | 502 nM | 1.3 nM | 18 nM | 10000 nM |  |  |  | 
Cn1cnc2ccc(-c3nc(C(=O)NCc4ncccc4OCCO)c(N)nc3-c3ccc(F)cc3)cc21 [Example 113, 3-amino-5-(4-fluorophenyl)-N-[[3-(2-hydroxyethoxy)pyridin-2-yl]methyl]-6-(1-methyl-1H-1,3-benzodiazol-6-yl)pyrazine-2-carboxamide] | 68 nM | 0.4 nM | 1 nM | 70 nM |  |  |  | 
COCCOc1cccnc1CNC(=O)c1nc(-c2ccc3ncn(C)c3c2)c(-c2ccc(F)cc2)nc1N [Example 114, 3-amino-5-(4-fluorophenyl)-N-[[3-(2-methoxyethoxy)pyridin-2-yl]methyl]-6-(1-methyl-1H-1,3-benzodiazol-6-yl)pyrazine-2-carboxamide] | 170 nM | 0.7 nM | 1.5 nM | 83 nM |  |  |  | 
CN(C)CCOc1cccnc1CNC(=O)c1nc(-c2ccc3ncn(C)c3c2)c(-c2ccc(F)cc2)nc1N [Example 116, 3-amino-N-([3-[2-(dimethylamino)ethoxy]pyridin-2-yl]methyl)-5-(4-fluorophenyl)-6-(1-methyl-1H-1,3-benzodiazol-6-yl)pyrazine-2-carboxamide] |  |  |  |  | 6020 nM | 9.6 nM | 17 nM | 61 nM
Cn1cnc2ccc(-c3nc(C(=O)NCc4ncccc4NCCO)c(N)nc3-c3ccc(F)cc3)cc21 [Example 117, 3-amino-5-(4-fluorophenyl)-N-([3-[(2-hydroxyethyl)amino]pyridin-2-yl]methyl)-6-(1-methyl-1H-1,3-benzodiazol-6-yl)pyrazine-2-carboxamide] | 146 nM | 0.7 nM | 2.6 nM | 64 nM |  |  |  | 
Cc1cnc2ccc(-c3nc(C(=O)NCc4cnccc4N(C)C)c(N)nc3-c3ncco3)cn12 [Example 118, 3-amino-N-((4-(dimethylamino)pyridin-3-yl)methyl)-6-(3-methylimidazo[1,2-a]pyridin-6-yl)-5-(oxazol-2-yl)pyrazine-2-carboxamide] | 6.8 nM | 3.1 nM | 1.7 nM | 35 nM |  |  |  | 
Cn1cnc2ccc(-c3nc(C(=O)NCc4ncccc4OCC(N)=O)c(N)nc3-c3ccc(F)cc3)cc21 [Example 119, 3-amino-N-[[3-(carbamoylmethoxy)pyridin-2-yl]methyl]-5-(4-fluorophenyl)-6-(1-methyl-1H-1,3-benzodiazol-6-yl)pyrazine-2-carboxamide] | 31 nM | 1.1 nM | 4.7 nM | 41 nM |  |  |  | 
Cc1cnc2ccc(-c3nc(C(=O)NC[C@H]4CCCN4)c(N)nc3-c3ncco3)cn12 [Example 122, (R)-3-amino-6-(3-methylimidazo[1,2-a]pyridin-6-yl)-5-(oxazol-2-yl)-N-(pyrrolidin-2-ylmethyl)pyrazine-2-carboxamide] | 887 nM | 34 nM | 126 nM | 10000 nM |  |  |  | 
Cc1cnc2ccc(-c3nc(C(=O)NC[C@@H]4CCCN4)c(N)nc3-c3ncco3)cn12 [Example 123, (S)-3-amino-6-(3-methylimidazo[1,2-a]pyridin-6-yl)-5-(oxazol-2-yl)-N-(pyrrolidin-2-ylmethyl)pyrazine-2-carboxamide] | 1310 nM | 56 nM | 153 nM | 10000 nM |  |  |  | 
